This passage reports IC50 results from patent US9650339B2, “Inhibitors of histone demethylases” (Gilead Sciences, Inc., priority 2013, dated 2017).

pIC50: −log10 of the molar value. A value given as a limit tells only on which side of the number the result lay.

The target of the first assay is T1, KDM4A (Homo sapiens, UniProt O75164).
T1 construct: Full length; host or cells: U2OS
T1 sequence (O75164 1-1064): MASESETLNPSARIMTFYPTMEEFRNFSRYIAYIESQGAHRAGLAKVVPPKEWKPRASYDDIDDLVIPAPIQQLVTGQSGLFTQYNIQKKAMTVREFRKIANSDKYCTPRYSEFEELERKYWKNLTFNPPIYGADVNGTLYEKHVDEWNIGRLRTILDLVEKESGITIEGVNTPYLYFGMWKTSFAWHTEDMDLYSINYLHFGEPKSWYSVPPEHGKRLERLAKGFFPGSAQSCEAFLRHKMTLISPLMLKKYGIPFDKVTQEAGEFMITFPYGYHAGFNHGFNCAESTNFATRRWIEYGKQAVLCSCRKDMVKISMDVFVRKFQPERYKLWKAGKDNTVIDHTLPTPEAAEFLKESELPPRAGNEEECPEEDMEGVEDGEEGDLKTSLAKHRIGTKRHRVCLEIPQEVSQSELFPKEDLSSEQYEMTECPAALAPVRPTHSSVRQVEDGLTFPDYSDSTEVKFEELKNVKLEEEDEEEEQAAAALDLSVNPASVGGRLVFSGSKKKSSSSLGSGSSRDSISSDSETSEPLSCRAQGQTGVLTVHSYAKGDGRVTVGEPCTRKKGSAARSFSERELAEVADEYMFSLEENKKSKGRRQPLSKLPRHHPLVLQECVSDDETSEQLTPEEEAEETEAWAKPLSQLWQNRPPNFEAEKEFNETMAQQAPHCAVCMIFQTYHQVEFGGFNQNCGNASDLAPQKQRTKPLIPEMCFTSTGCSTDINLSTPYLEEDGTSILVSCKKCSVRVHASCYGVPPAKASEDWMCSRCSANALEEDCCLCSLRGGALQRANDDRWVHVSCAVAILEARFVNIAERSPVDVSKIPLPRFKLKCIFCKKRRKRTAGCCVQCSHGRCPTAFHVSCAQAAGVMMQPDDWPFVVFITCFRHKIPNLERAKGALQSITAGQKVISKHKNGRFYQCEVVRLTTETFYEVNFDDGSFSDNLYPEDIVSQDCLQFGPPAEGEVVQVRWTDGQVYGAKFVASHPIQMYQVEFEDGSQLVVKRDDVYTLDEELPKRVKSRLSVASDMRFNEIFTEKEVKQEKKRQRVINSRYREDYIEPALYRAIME
Kind of assay: Histone lysine demethylase immunofluorescence assay, U2OS cells transfected with KDM4A. Type of assay: cell-based. Conditions: U2OS cells transfected with pCMVHA KDM4A; mark detected H3K9me3; 20 hours. As for the experimental part: (§1) U2OS cells were seeded 24 hours before transfection. Transfection was performed with Fugene HD transfection reagent as recommended by the manufacturer. 6 hours after transfection, the cells were harvested and seeded into multi well plates into media containing compound. The media used was DMEM containing 10% FBS and pen/strep. 20 hours after incubation of cells with compounds, the cells were washed in PBS, harvested by fixation with formaldehyde 4% aqueous solution, and washed in PBS. Subsequently, the cells were permeabilized in PBS with 0.2% Triton X-100 for. Blocking was performed in PBS with 0.2% Triton X-100 and 5% FBS. The cells were incubated with primary antibodies in blocking solution over night at 4° C. The primary antibodies used in the assays were HA.11 (Covance, MMS-101P) and the antibody detecting the mark specified in the table below. After incubation with primary antibodies, the cells were washed with PBS, incubated with secondary antibodies (Alexa fluor 594 goat anti rabbit IgG, Invitrogen, A11012; Alexa flour 488 donkey anti mouse IgG, Invitrogen, A21202) and Hoechst, (Sigma, 33342) in blocking solution, and washed again with PBS. Finally, PBS was added and high throughput imaging and analysis were performed by an IN Cell Analyzer 1000 (GE Healthcare). The robot software analyzed individual cells and divided these into HA+ (transfected cells) and HA− (non-transfected cells). The IC50 values were based on an average measure of the staining of the mark specified in the table below in the transfected cells.
As to `COc1ccccc1CN1CCC(NC(=O)CNCc2cc(CN)ccn2)CC1` [Compound 9, 2-({[4-(aminomethyl)pyridin-2-yl]methyl}amino)-N-{1-[(2-methoxyphenyl)methyl]-piperidin-4-yl}acetamide], the pIC50 – broadly, the IC50 on a negative log10 scale, so that one unit is a factor of ten – is less than 5.60.
Still for that read-out and setting: the figure for `CN(C)C(=O)CNCc1cc(CNCC#N)ccn1` [Compound 13, 2-{[(4-{[(cyanomethyl)amino]-methyl}pyridin-2-yl)methyl]amino}-N,N-dimethylacetamide] is 5.60 to 6.60.
Still for that read-out and setting: the value for `CN(C)CCNCc1ccnc(CNCC(=O)N(C)C)c1` [Compound 15, 2-({[4-({[2-(dimethylamino)ethyl]-amino}methyl)pyridin-2-yl]methyl}amino)-N,N-dimethylacetamide] was less than 5.60; that for `CN(C)C(=O)CNCc1cc(/C=N/CCC2CCCCC2)ccn1` [Compound 36, 2-[({4-[[(2-cyclohexylethyl)imino]-methyl]pyridin-2-yl}methyl)amino]-N,N-dimethylacetamide] was less than 5.60; that for `CN(CCCNCc1cc(/C=N/C2CC2)ccn1)Cc1ccccc1` [Compound 41, N-({2-[({3-[benzyl(methyl)amino]-propyl}amino)methyl]-pyridin-4-yl}methylidene)-cyclopropanamine] was less than 5.60.
Still for that read-out and setting: the figure for `C(=N/C1CC1)/c1ccnc(CNCCCN2CCCC2)c1` [Compound 42, N-{[2-({[3-(pyrrolidin-1-yl)propyl]amino}-methyl)pyridin-4-yl]methylidene}-cyclopropanamine] is less than 5.60.
Turning to `CN(C)CC1CCC(CNCc2cc(/C=N/C3CC3)ccn2)CC1` (stereo not shown) [Compound 46, N-[(2-{[({4-[(dimethylamino)-methyl]cyclohexyl}-methyl)amino]-methyl}pyridin-4-yl)methylidene]-cyclopropanamine], the pIC50 was more than 6.60.
As for `O=C(CNCc1cc(/C=N/C2CC2)ccn1)NC1CCN(Cc2ccccc2)C1` (stereo not shown) [Compound 53, N-(1-benzylpyrrolidin-3-yl)-2-[({4-[N-cyclopropyl-carboximidoyl]pyridin-2-yl}methyl)amino]-acetamide], the negative-log IC50 (pIC50) was less than 5.60.
Same read-out and setting: the value for `CCN(CC)CCCCNCc1cc(/C=N/CCOC)ccn1` [Compound 60, [4-(diethylamino)butyl]-({4-[[(2-methoxyethyl)imino]-methyl]pyridin-2-yl}methyl)amine] was 5.60 to 6.60; that for `CN(C)C/C=C/CNCc1cc(C=O)ccn1` [Compound 98, 2-({[(2E)-4-(dimethylamino)but-2-en-1-yl]amino}-methyl)pyridine-4-carbaldehyde] was more than 6.60.
Compound `O=Cc1ccnc(CNCC(=O)N2CCC[C@@H]2CN2CCCC2)c1` [Compound 102, 2-[({2-oxo-2-[(2R)-2-(pyrrolidin-1-ylmethyl)pyrrolidin-1-yl]ethyl}amino)-methyl]pyridine-4-carbaldehyde] showed a pIC50 of 5.60 to 6.60.
Still for that read-out and setting: the value for `O=Cc1ccnc(CNCCCN2CCCC2)c1` [Compound 111, 2-({[3-(pyrrolidin-1-yl)propyl]amino}-methyl)pyridine-4-carbaldehyde] was less than 5.60.

For another assay, the target named is T2, KDM6B (Homo sapiens, UniProt O15054).
T2 construct: (a.a. 1026-1682); host or cells: U2OS
T2 sequence (O15054 1026-1682 isoform O15054-1): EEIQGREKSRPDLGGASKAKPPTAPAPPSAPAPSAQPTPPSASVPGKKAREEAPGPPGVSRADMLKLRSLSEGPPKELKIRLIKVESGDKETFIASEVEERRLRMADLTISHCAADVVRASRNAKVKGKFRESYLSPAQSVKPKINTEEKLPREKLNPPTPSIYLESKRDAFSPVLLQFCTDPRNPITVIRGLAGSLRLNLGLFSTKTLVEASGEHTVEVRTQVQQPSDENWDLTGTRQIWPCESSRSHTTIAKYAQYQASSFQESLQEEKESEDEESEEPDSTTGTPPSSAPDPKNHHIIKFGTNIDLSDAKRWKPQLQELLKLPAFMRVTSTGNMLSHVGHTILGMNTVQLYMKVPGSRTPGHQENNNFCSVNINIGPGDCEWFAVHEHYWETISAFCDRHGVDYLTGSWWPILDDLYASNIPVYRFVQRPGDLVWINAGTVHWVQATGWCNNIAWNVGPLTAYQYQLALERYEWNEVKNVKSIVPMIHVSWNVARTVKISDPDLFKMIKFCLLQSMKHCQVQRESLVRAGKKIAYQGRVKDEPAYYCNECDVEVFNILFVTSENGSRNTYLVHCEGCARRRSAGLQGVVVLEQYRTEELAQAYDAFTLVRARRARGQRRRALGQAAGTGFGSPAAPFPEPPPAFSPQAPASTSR
Kind of assay: Histone lysine demethylase immunofluorescence assay, U2OS cells transfected with KDM6B. It is filed as cell-based. Conditions: U2OS cells transfected with pCMVHA KDM6B; mark detected H3K27me2; 20 hours. On the procedure:
as §1
The compound `CCN(CCN(C)C)C(=O)CNCc1cc(CN)ccn1` [Compound 4, 2-({[4-(aminomethyl)pyridin-2-yl]methyl}amino)-N-[2-(dimethylamino)ethyl]-N-ethylacetamide] gave a pIC50 of less than 5.60.
Still for that read-out and setting: the value for `CNC(C#N)c1ccnc(CNCCCN(C)C)c1` (stereo not shown) [Compound 24, 2-[2-({[3-(dimethylamino)propyl]-amino}methyl)pyridin-4-yl]-2-(methylamino)-acetonitrile] was less than 5.60; that for `C(=N/C1CC1)/c1ccnc(CNCCCN2CCCC2)c1` [Compound 42, N-{[2-({[3-(pyrrolidin-1-yl)propyl]amino}-methyl)pyridin-4-yl]methylidene}-cyclopropanamine] was less than 5.60; that for `CCN(CC)CCCCNCc1cc(C=O)ccn1` [Compound 107, 2-({[4-(diethylamino)-butyl]amino}-methyl)pyridine-4-carbaldehyde] was less than 5.60.
